From patent publication US20170066795A1, “SOLID PRODRUG FORMS OF 2'-CHLORO-2'-METHYL URIDINE FOR HCV” (IDENIX PHARMACEUTICALS LLC, priority 2014, published 2017)

Experiment: Example 4 Group B: safety (adverse events) in genotype 1 HCV-infected subjects
Assay type: in vivo, human
Procedure: Five sequential cohorts of 3 HCV-infected subjects (HCV) per cohort received under fasted conditions open-label Compound I at single ascending doses of 10, 25, 50, 150, and 300 mg (below, “Group B”).
For Groups A and B, dosing occurred between approximately 08:00 AM and 10:00 AM on each dosing day. Dosing was fasted for all subjects in Groups A and B. For fasted dosing, subjects observed a fasting period of approximately 10 hours prior to each dose and for an additional 4 hours post-dose.
Safety measurements included clinical history, routine laboratory evaluation, physical examination, 12-lead ECG, vital signs, adverse event (AE) assessment.

CC(C)OC(=O)[C@@H](C)N[P@@](=O)(OC[C@H]1O[C@@H](n2ccc(=O)[nH]c2=O)[C@](C)(Cl)[C@@H]1O)Oc1ccccc1 [Compound I]
Adverse event: Constipation (10 mg single dose (n = 3)): 0 n, %
Adverse event: Diarrhea (10 mg single dose (n = 3)): 0 n, %
Adverse event: Dry mouth (10 mg single dose (n = 3)): 0 n, %
Adverse event: Dry skin (10 mg single dose (n = 3)): 0 n, %
Adverse event: Dysuria (10 mg single dose (n = 3)): 0 n, %
Adverse event: Fatigue (10 mg single dose (n = 3)): 0 n, %
Adverse event: Feces hard (10 mg single dose (n = 3)): 0 n, %
Adverse event: Flatulence (10 mg single dose (n = 3)): 0 n, %
Adverse event: Headache (10 mg single dose (n = 3)): 0 n, %
Adverse event: Myalgia (10 mg single dose (n = 3)): 1 (33.3) n, %
Adverse event: Neck pain (10 mg single dose (n = 3)): 0 n, %
Adverse event: Pruritus (10 mg single dose (n = 3)): 0 n, %
Adverse event: Pruritus generalized (10 mg single dose (n = 3)): 0 n, %
Adverse event: Vessel puncture site bruise (10 mg single dose (n = 3)): 0 n, %
Subjects with AE (10 mg single dose (n = 3)): 1 (33.3) n, %
Adverse event: Constipation (25 mg single dose (n = 3)): 1 (33.3) n, %
Adverse event: Diarrhea (25 mg single dose (n = 3)): 0 n, %
Adverse event: Dry mouth (25 mg single dose (n = 3)): 0 n, %
Adverse event: Dry skin (25 mg single dose (n = 3)): 0 n, %
Adverse event: Dysuria (25 mg single dose (n = 3)): 0 n, %
Adverse event: Fatigue (25 mg single dose (n = 3)): 1 (33.3) n, %
Adverse event: Feces hard (25 mg single dose (n = 3)): 0 n, %
Adverse event: Flatulence (25 mg single dose (n = 3)): 1 (33.3) n, %
Adverse event: Headache (25 mg single dose (n = 3)): 1 (33.3) n, %
Adverse event: Myalgia (25 mg single dose (n = 3)): 0 n, %
Adverse event: Neck pain (25 mg single dose (n = 3)): 1 (33.3) n, %
Adverse event: Pruritus (25 mg single dose (n = 3)): 0 n, %
Adverse event: Pruritus generalized (25 mg single dose (n = 3)): 0 n, %
Adverse event: Vessel puncture site bruise (25 mg single dose (n = 3)): 0 n, %
Subjects with AE (25 mg single dose (n = 3)): 2 (66.7) n, %
Adverse event: Constipation (50 mg single dose (n = 3)): 0 n, %
Adverse event: Diarrhea (50 mg single dose (n = 3)): 0 n, %
Adverse event: Dry mouth (50 mg single dose (n = 3)): 0 n, %
Adverse event: Dry skin (50 mg single dose (n = 3)): 0 n, %
Adverse event: Dysuria (50 mg single dose (n = 3)): 1 (33.3) n, %
Adverse event: Fatigue (50 mg single dose (n = 3)): 0 n, %
Adverse event: Feces hard (50 mg single dose (n = 3)): 0 n, %
Adverse event: Flatulence (50 mg single dose (n = 3)): 0 n, %
Adverse event: Headache (50 mg single dose (n = 3)): 0 n, %
Adverse event: Myalgia (50 mg single dose (n = 3)): 0 n, %
Adverse event: Neck pain (50 mg single dose (n = 3)): 0 n, %
Adverse event: Pruritus (50 mg single dose (n = 3)): 0 n, %
Adverse event: Pruritus generalized (50 mg single dose (n = 3)): 0 n, %
Adverse event: Vessel puncture site bruise (50 mg single dose (n = 3)): 0 n, %
Subjects with AE (50 mg single dose (n = 3)): 1 (33.3) n, %
Adverse event: Constipation (150 mg single dose (n = 3)): 0 n, %
Adverse event: Diarrhea (150 mg single dose (n = 3)): 0 n, %
Adverse event: Dry mouth (150 mg single dose (n = 3)): 1 (33.3) n, %
Adverse event: Dry skin (150 mg single dose (n = 3)): 1 (33.3) n, %
Adverse event: Dysuria (150 mg single dose (n = 3)): 0 n, %
Adverse event: Fatigue (150 mg single dose (n = 3)): 1 (33.3) n, %
Adverse event: Feces hard (150 mg single dose (n = 3)): 0 n, %
Adverse event: Flatulence (150 mg single dose (n = 3)): 0 n, %
Adverse event: Headache (150 mg single dose (n = 3)): 0 n, %
Adverse event: Myalgia (150 mg single dose (n = 3)): 0 n, %
Adverse event: Neck pain (150 mg single dose (n = 3)): 0 n, %
Adverse event: Pruritus (150 mg single dose (n = 3)): 1 (33.3) n, %
Adverse event: Pruritus generalized (150 mg single dose (n = 3)): 1 (33.3) n, %
Adverse event: Vessel puncture site bruise (150 mg single dose (n = 3)): 0 n, %
Subjects with AE (150 mg single dose (n = 3)): 2 (66.7) n, %
Adverse event: Constipation (300 mg single dose (n = 3)): 0 n, %
Adverse event: Diarrhea (300 mg single dose (n = 3)): 1 (33.3) n, %
Adverse event: Dry mouth (300 mg single dose (n = 3)): 0 n, %
Adverse event: Dry skin (300 mg single dose (n = 3)): 0 n, %
Adverse event: Dysuria (300 mg single dose (n = 3)): 0 n, %
Adverse event: Fatigue (300 mg single dose (n = 3)): 0 n, %
Adverse event: Feces hard (300 mg single dose (n = 3)): 1 (33.3) n, %
Adverse event: Flatulence (300 mg single dose (n = 3)): 0 n, %
Adverse event: Headache (300 mg single dose (n = 3)): 0 n, %
Adverse event: Myalgia (300 mg single dose (n = 3)): 0 n, %
Adverse event: Neck pain (300 mg single dose (n = 3)): 0 n, %
Adverse event: Pruritus (300 mg single dose (n = 3)): 0 n, %
Adverse event: Pruritus generalized (300 mg single dose (n = 3)): 0 n, %
Adverse event: Vessel puncture site bruise (300 mg single dose (n = 3)): 1 (33.3) n, %
Subjects with AE (300 mg single dose (n = 3)): 2 (66.7) n, %
